According to the NIST ThermoML archive (doi:10.1021/je300076y):
Numbers after ± are expanded uncertainties.

How the values were obtained:
[1] = refractive index (Na D-line) (dimensionless); conditions: 101.33 kPa, Liquid, Standard Abbe refractometry
[2] = Liquid; for mass density: 293.15 K, 101.33 kPa, Vibrating tube method

Row | refractive index ([1]; 293.15 K) | mass density [2] | vapor or sublimation pressure ([2]; 439.35 K) | refractive index ([1]; 293.1 K) | vapor or sublimation pressure ([2]; 472.25 K) | vapor or sublimation pressure ([2]; 353.61 K) | vapor or sublimation pressure ([2]; 353.71 K) | Structure (SMILES)
1 | 1.3835 ± 0.0007 | 935 ± 0.3 kg/m3 | 95.5 ± 2.5 kPa |  |  |  |  | CCO[Si](OCC)(OCC)OCC [tetraethoxysilane]
2 |  | 1024.5 ± 0.3 kg/m3 |  | 1.537 ± 0.0008 | 95.5 ± 2.5 kPa |  |  | CC(=O)c1ccccc1 [acetophenone]
3 | 1.3877 ± 0.0007 | 788.4 ± 0.3 kg/m3 |  |  |  | 95.5 ± 2.5 kPa | 95.5 ± 2.5 kPa | CC(C)(C)O [2-methylpropan-2-ol]
